Calls of active or inactive are those of the source. The rule behind the calls is not given here.
target: Mu-type opioid receptor (Homo sapiens) + Delta-type opioid receptor (Homo sapiens) (UniProt P35372+P41143); assay: agonists of MOR-DOR heterodimerization, dose response, counter-screen for MC4R biased agonist project, cell-based, luminescence (AID 602264); conditions: cell-based OPRM1-OPRD1 heterodimerization
Sequence (P35372 whole entry, looked up): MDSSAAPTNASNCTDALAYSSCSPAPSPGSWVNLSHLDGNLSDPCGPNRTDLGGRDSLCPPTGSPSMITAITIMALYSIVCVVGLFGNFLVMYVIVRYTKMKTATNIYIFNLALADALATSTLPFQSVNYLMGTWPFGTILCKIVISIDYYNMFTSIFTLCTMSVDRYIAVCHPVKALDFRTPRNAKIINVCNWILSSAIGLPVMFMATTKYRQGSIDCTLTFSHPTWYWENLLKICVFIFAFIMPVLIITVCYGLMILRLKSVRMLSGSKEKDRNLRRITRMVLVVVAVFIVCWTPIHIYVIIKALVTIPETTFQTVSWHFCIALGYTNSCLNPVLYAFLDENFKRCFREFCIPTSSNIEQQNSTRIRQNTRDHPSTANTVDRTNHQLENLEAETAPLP
Sequence (P41143 whole entry, looked up): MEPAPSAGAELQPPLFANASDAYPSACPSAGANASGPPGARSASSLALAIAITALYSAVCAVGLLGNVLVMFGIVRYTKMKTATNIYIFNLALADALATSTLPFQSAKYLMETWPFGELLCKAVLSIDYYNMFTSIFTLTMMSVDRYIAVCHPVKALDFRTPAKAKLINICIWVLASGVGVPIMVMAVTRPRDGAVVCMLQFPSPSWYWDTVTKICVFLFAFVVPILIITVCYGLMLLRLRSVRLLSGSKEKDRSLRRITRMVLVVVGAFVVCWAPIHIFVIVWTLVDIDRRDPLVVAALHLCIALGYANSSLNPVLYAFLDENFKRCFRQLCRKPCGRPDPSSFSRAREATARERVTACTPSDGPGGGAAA

Row | Structure (SMILES) | EC50
1 | CCN1CCC(O)(/C=C/c2ccc(C(C)C)cc2)C(C(=O)/C=C/c2ccc(C(C)C)cc2)C1 (stereo not drawn) | > 64.6 µM (inactive)
2 | CCOC(=O)Cc1csc(NC(=O)c2sc3nc4cc(C)ccc4cc3c2N)n1 | > 92.4 µM (inactive)
3 | CC(C)c1ccc(NS(=O)(=O)c2ccc(-n3cccn3)cc2)cc1 | > 92.5 µM (inactive)
4 | COc1ccc(C(NC(=O)C2CCN(CCOc3ccc(Cl)cc3Cl)CC2)c2ccccc2C)cn1 (stereo not drawn) | > 64.6 µM (inactive)
5 | C/C(=N\NC(=O)COc1cccc2ccccc12)c1cccs1 | > 64.6 µM (inactive)
6 | COc1cccc(-c2cnc3c(NC=O)cc(-c4ccc(O)c(OC)c4)cn23)c1 | > 64.6 µM (inactive)
7 | CC(=O)Nc1cc(-c2cccc(C(=O)NCCN(C)C)c2)cn2c(-c3cccc(C(F)(F)F)c3)cnc12 | > 92.5 µM (inactive)
8 | COc1ccc(-c2cc(NC(C)=O)c3ncc(-c4cccc(C(C)=O)c4)n3c2)cc1OC | > 64.6 µM (inactive)
9 | CCOc1cc(NC(=O)c2cccs2)c(OCC)cc1NC(=O)c1ccco1 | > 92.3 µM (inactive)
10 | COc1ccc(-c2cnc3c(NC(C)=O)cc(-c4ccccc4OC)cn23)cc1OC | > 64.6 µM (inactive)
11 | CCN1CCN(CCNC(=O)c2ccc(/C=C3\Sc4ccccc4N(Cc4ccccc4F)C3=O)cc2)CC1 | > 92.5 µM (inactive)
12 | CC(=O)Nc1cc(-c2cccc(NS(C)(=O)=O)c2)cn2c(-c3ccccc3)cnc12 | > 92.5 µM (inactive)
13 | Cc1ccc(C(=O)Cn2c(C(=O)/C=C/c3ccccc3)nc3ccccc32)cc1 | > 64.6 µM (inactive)
14 | Cc1cc(C)c(CN2CCN(CCCn3cnc(C(=O)Nc4ccc(C)c(C)c4)n3)CC2)c(C)c1 | > 92.5 µM (inactive)
15 | O=C(N/N=C/c1ccc(OCc2ccccc2)cc1)c1cccs1 | > 92.5 µM (inactive)
16 | COc1ccc(-c2cc(NC(C)=O)c3ncc(-c4ccc(OC)c(OC)c4)n3c2)cc1OC | > 64.6 µM (inactive)
17 | CCOc1ccc(Cn2c3ccc(OC)cc3c3nc4ccccc4nc32)cc1OC | > 64.6 µM (inactive)
18 | CN(C)CCOc1ccc(-c2c(-c3ccccc3)sc3ccccc23)cc1 | > 92.5 µM (inactive)
19 | CCCOC(=O)c1cccc(Nc2nc(-c3cccnc3)nc3ccccc23)c1 | > 92.6 µM (inactive)
20 | COc1cc(-c2cc(NC=O)c3ncc(-c4cccc(C(F)(F)F)c4)n3c2)cc(OC)c1OC | > 64.6 µM (inactive)
21 | Cc1ccccc1-c1nc(-c2ccc(NC(=O)c3ccc4c(c3)OCO4)cc2)no1 | > 92.4 µM (inactive)
22 | Cc1ccc(C2=NN(C(=O)c3cccs3)C(c3ccccc3O)C2)cc1 (stereo not drawn) | > 64.6 µM (inactive)

Row | Structure (SMILES) | EC50
23 | CCC(C)NC(=O)c1c(N)n(/N=C/c2cccnc2)c2nc3ccccc3nc12 (stereo not drawn) | > 92.4 µM (inactive)
24 | CC(=O)Nc1cc(-c2ccc(C(=O)NC3CC3)cc2)cn2c(-c3cccc(C(C)=O)c3)cnc12 | > 64.6 µM (inactive)
25 | Cc1cc(C)c2sc(N(CCCN(C)C)C(=O)c3ccc(Br)s3)nc2c1 | > 92.5 µM (inactive)
26 | COc1ccc(NC(=O)Nc2nc(C(N)Cc3ccc(C(F)(F)F)cc3)cs2)cc1 (stereo not drawn) | > 64.6 µM (inactive)
27 | Cc1cc(NC(=O)c2cncc(Br)c2)ccc1NC(=O)c1cc2ccccc2o1 | > 64.6 µM (inactive)
28 | COc1ccc(NC(=O)COC(=O)c2c(NC(C)=O)sc(C)c2C)cc1 | > 92.5 µM (inactive)
29 | CCOc1ccc(NC(=S)NC(=O)/C=C/c2ccc(C)cc2)c([N+](=O)[O-])c1 | > 64.6 µM (inactive)
30 | CC(/C=C/C=C/c1ccccc1)=N/NC(=O)CNc1ccccc1C | > 64.6 µM (inactive)
31 | Cc1nc(NC(=O)c2cccc(-c3cc4ccccc4oc3=O)c2)ccc1Br | > 64.6 µM (inactive)
32 | N#C/C(=C\c1cn(CCOc2ccccc2)c2ccccc12)C(=O)NCc1ccco1 | > 92.5 µM (inactive)
33 | O=CNc1cc(-c2ccsc2)cn2c(-c3ccccc3)cnc12 | > 92.5 µM (inactive)
34 | COc1ccc(COc2ccsc2C(=O)Nc2ccc(Cl)c(Cl)c2)cc1 | > 64.6 µM (inactive)
35 | COc1ccc(-c2ccc3c(c2)S(=O)(=O)c2cccc(C(=O)NCc4cc(C)oc4C(F)(F)F)c2C3=O)cc1OC | > 92.5 µM (inactive)
36 | Cc1ccc2[nH]c(=O)c3cc(C(=O)N(CCCOC(C)C)Cc4ccco4)sc3c2c1 | > 92.5 µM (inactive)
37 | O=C(N/N=C/c1c[nH]c2ccccc12)C1CC1(c1ccccc1)c1ccccc1 (stereo not drawn) | > 92.5 µM (inactive)
38 | COc1ccc(-c2oc3ccc(-c4ccc5c(c4)OCO5)cc3c2C#CC2(O)CCCCC2)cc1 | > 64.6 µM (inactive)
39 | CCOc1ccc(NC(=O)CSc2nc(-c3cccs3)cc(C(F)(F)F)n2)c([N+](=O)[O-])c1 | > 64.6 µM (inactive)
40 | COc1ccc2sc(-c3ccc(S(C)(=O)=O)cc3)c(C#Cc3cncn3C)c2c1 | > 92.5 µM (inactive)
41 | CC(C)CC(N)c1csc(Nc2ccc(C(F)(F)F)cn2)n1 (stereo not drawn) | > 92.5 µM (inactive)
42 | Cc1ccc2sc(N(CCCN(C)C)C(=O)CN3C(=O)c4ccccc4C3=O)nc2c1C | > 64.6 µM (inactive)
43 | COc1ccccc1-c1cc(NC=O)c2ncc(-c3cccc(C(F)(F)F)c3)n2c1 | > 64.6 µM (inactive)
44 | COc1cccc(-c2cnc3c(NC=O)cc(-c4cc(OC)c(OC)c(OC)c4)cn23)c1 | > 92.5 µM (inactive)

Row | Structure (SMILES) | EC50
45 | CC(=O)Nc1cc(-c2ccc(C(=O)N3CCOCC3)cc2)cn2c(-c3ccccc3)cnc12 | > 92.5 µM (inactive)
46 | Clc1ccc(/C=N/NC2=Nc3cccc4cccc2c34)cc1 | > 92.4 µM (inactive)
47 | CN(C)CCCNC(=O)c1ccc(-c2nc(-c3ccc(Cl)cc3)cs2)cc1 | > 64.6 µM (inactive)
48 | COc1cccc(-c2cnc3c(NC(C)=O)cc(-c4cc(OC)c(OC)c(OC)c4)cn23)c1 | > 64.6 µM (inactive)
49 | Cc1ccc(C(=O)c2coc3c2C(=O)C(=O)c2ccccc2-3)cc1 | > 64.6 µM (inactive)
50 | COc1cc(C(=O)Nc2nnc(-c3sccc3C)s2)cc(OC)c1OC | > 92.5 µM (inactive)
51 | O=C(Nc1nc2ccc(SC(F)F)cc2s1)c1ccc(NS(=O)(=O)c2ccc(F)c(F)c2)cc1 | > 64.6 µM (inactive)
52 | CC(=O)Nc1cc(-c2ccc(F)cc2)cn2c(-c3ccc(F)c(Cl)c3)cnc12 | > 64.6 µM (inactive)
53 | NC(Cc1ccc(C(F)(F)F)cc1)c1csc(Nc2nccc(C(F)(F)F)n2)n1 (stereo not drawn) | > 92.4 µM (inactive)
54 | NC(N)=Nc1nc(-c2ccccc2)c2cc(Cl)ccc2n1 | > 10.3 µM (inactive)
55 | CC(=O)c1cccc(-c2cnc3c(NC=O)cc(-c4ccccc4F)cn23)c1 | > 64.6 µM (inactive)
56 | COc1cc2nc(Nc3ccc(C)c(Cl)c3)nc(N)c2cc1OC | > 92.5 µM (inactive)
57 | O=C1C2=C(NC(=S)NC2c2ccc(Cl)cc2)NC(c2ccc(Cl)cc2)N1c1ccc(Cl)cc1 (stereo not drawn) | inactive
58 | COc1cccc(-c2cnc3c(NC=O)cc(-c4cccc(C(=O)N(C)C)c4)cn23)c1 | > 64.6 µM (inactive)
59 | CCN1CCN(Cc2ccc(NC(=O)c3cc(NC(=O)c4cc5cccc(OC)c5o4)cc(OC)c3)cc2C(F)(F)F)CC1 | > 64.6 µM (inactive)
60 | CC(=O)Nc1cc(-c2cccc(C(=O)N(C)C)c2)cn2c(-c3ccc(F)c(Cl)c3)cnc12 | > 64.6 µM (inactive)
61 | CCn1c(SCC(=O)Nc2ccc(C(C)=O)cc2)nc2nc3c(cc2c1=O)CCCC3 | > 64.6 µM (inactive)
62 | COc1ccc(/C=N/NC(=O)c2ccc(COc3ccccc3Cl)o2)c(OC)c1C | > 64.6 µM (inactive)
63 | Clc1ccc(C2=Nn3c(nnc3-c3cc(-c4ccccc4)n[nH]3)SC2)cc1 | inactive
64 | c1ccc(-c2sc3ccccc3c2-c2ccc(OCCN3CCCC3)cc2)cc1 | > 92.5 µM (inactive)
65 | CCOc1cc(CNCCc2c[nH]c3ccccc23)cc(Cl)c1OCC | > 92.5 µM (inactive)
66 | CCc1ccc(CCC(=O)Nc2ncc(Cc3ccccc3Cl)s2)o1 | > 92.5 µM (inactive)

Row | Structure (SMILES) | EC50
67 | CCOC(=O)C(=CNc1ccc2c(c1)nnn2-c1ccc(Cl)cc1)C(=O)OCC | > 64.6 µM (inactive)
68 | CC(=O)Nc1ccc(-c2csc(NC(=O)Nc3ccccc3)n2)cc1 | > 64.6 µM (inactive)
69 | CCOc1ccc(Cn2c3ccc(OC)cc3c3nc4ccccc4nc32)cc1 | > 64.6 µM (inactive)
70 | Cc1ccc(CN2CCC(c3cc(-c4ccc(Cl)cc4)n[nH]3)CC2)cc1 | > 92.5 µM (inactive)
71 | COc1cc(-c2cc(NC=O)c3ncc(-c4ccc(C(C)=O)cc4)n3c2)cc(OC)c1OC | > 92.5 µM (inactive)
72 | Cc1cccnc1C(c1ccc(F)cc1)N(C)C(=O)C1CCN(CCOc2ccc(Cl)cc2Cl)CC1 (stereo not drawn) | > 92.5 µM (inactive)
73 | COc1ccccc1-c1cc(NC(C)=O)c2ncc(-c3cccc(C(C)=O)c3)n2c1 | > 64.6 µM (inactive)
74 | COc1ccc2nc(NC(=O)CSc3nc4cccnc4n3C)sc2c1 | > 64.6 µM (inactive)
75 | CCCCCCCCCCCCCCCC[n+]1ccc(/C=N/O)cc1 | > 64.6 µM (inactive)
76 | COc1ccccc1NC(=O)Nc1nc(C(N)Cc2ccc(Cl)cc2)cs1 (stereo not drawn) | > 92.5 µM (inactive)
77 | Nc1c(-c2cccs2)cnn1-c1nc(-c2ccc(Cl)cc2Cl)cs1 | > 64.6 µM (inactive)
78 | COc1cccc(-c2cnc3c(NC(C)=O)cc(-c4ccsc4)cn23)c1 | > 92.5 µM (inactive)
79 | COc1ccc(CNCCc2ccc(Cl)cc2)cc1OCc1ccccc1 | > 92.5 µM (inactive)
80 | O=C1c2cccc3cccc(c23)C(=O)N1CC1CCN(CC(O)COc2ccc3ccccc3c2)CC1 (stereo not drawn) | > 10.3 µM (inactive)
81 | COc1cccc(-c2sc3ccccc3c2-c2ccc(OCCN(C)C)cc2)c1 | > 64.6 µM (inactive)
82 | COc1ccc(CNC(=O)Nc2nc(C(N)Cc3ccc(C(F)(F)F)cc3)cs2)cc1 (stereo not drawn) | > 64.6 µM (inactive)
83 | Cc1cc(C)cc(OCC(O)CN2CCC(CN3C(=O)c4cccc5cccc(c45)C3=O)CC2)c1 (stereo not drawn) | > 64.6 µM (inactive)
84 | O=C(CCN1C(=O)/C(=C/C=C/c2ccccc2)SC1=S)Nc1cccnc1 | > 92.5 µM (inactive)
85 | COc1ccc2c(c1)CCc1c(C(=O)Nc3ccn(Cc4ccc(C)cc4)n3)noc1-2 | > 92.4 µM (inactive)
86 | CC(=O)Nc1cc(-c2ccc(N(C)C)cc2)cn2c(-c3ccc(F)cc3)cnc12 | > 64.6 µM (inactive)
87 | CC(=O)Nc1cc(-c2ccccc2F)cn2c(-c3cccc(C(F)(F)F)c3)cnc12 | > 92.5 µM (inactive)
88 | COc1ccccc1-c1cc(NC(C)=O)c2ncc(-c3cccc(C(F)(F)F)c3)n2c1 | > 92.5 µM (inactive)

From PubChem BioAssay AID602264 (The Scripps Research Institute Molecular Screening Center, 2012)
